The text below walks through data of patent US11761894B2, “Silicon-rhodamine fluorescent probe containing hydrophobic group and use thereof” (AJOU UNIVERSITY INDUSTRY—ACADEMIC COOPERATION FOUNDATION, priority 2019, dated 2023).

Data set [1] is described as follows: Photophysical properties (excitation/emission wavelength, absolute quantum yield, fluorescence intensity in PBS). In kind it is physicochemical. As for the experimental part:
All reactions were carried out under an atmosphere of nitrogen or argon in air-dried glassware with magnetic stirring. Air- and/or moisture-sensitive liquids were transferred with syringe. Organic solutions were concentrated by rotary evaporation at 25-60° C. at 15-30 torr. All solvents and common materials were purchased from suppliers and used without further purification. Column chromatography was carried out as “Flash Chromatography” using Biotage MPLC machine. ^1H NMR and ^13C NMR data were recorded on an JEOL ECZ-600R Magnetic Resonance System (600 MHz) in Ajou University. Recorded shifts are reported in parts per million (6): Chemical shift, multiplicity (s=singlet, d=doublet, t=triplet, q=quartet, m=multiplet, br=broad), coupling constant (J, Hz) and integration. Low resolution mass spectrometry (LRMS) was obtained by LC/MS system, Finnigan MSQplus Surveyer (Thermo Scientific) or 6120 Quadrupole LC/MS (Agilent Technologies). The progress of reaction was monitored using thin layer chromatography (TLC) (silica gel 60, F254 0.25 mm), and components were visualized by observation under UV light (254 and 365 nm) or by treating the TLC plates with Phosphonolybdic acid (PMA), KMnO4, or ninhydrin followed by heating. Cell culture reagents including fatal bovine serum, culture media, and antibiotic-antimycotic solution were purchased from GIBCO. MitoTracker Green, and Hoechst were purchased from Invitrogen. The culture dish and glassbottom dish were purchased from CORNING, and SPL. All spectra experiments were performed in a 1×1 cm quartz cuvette. Fluorescence emission spectra were recorded on JASCO FP-8200 spectrofluorometer, and UV absorption spectra were recorded on JASCO V-670 spectrophotometer. Absolute quantum yield was measured by QE-2000 (Otsuka Electronics).

The subject of data set [2] is Hep3B liver cancer cells vs L02 or Chang normal liver cells. The data set can be described thus: Comparison of fluorescence intensity between normal cells and cancer cells. In kind it is cell-based, human. As to conditions: 1 μM, 1 h. How it is done: (a) Cells were incubated with full growth media containing SiR-Mito 8 (1 μM) and Hoechst dye (0.01 μg/ml) for 1 h. The cells were washed 3 times with growth media and observed with a LEICA DMi8 fluorescent microscope. […] (b) Quantification of the fluorescence intensity of SiR-Mito 8 in L02, Chang liver and in Hep3B cells. Scale bar: 50 μm.
Therefore, the present inventors envisioned that SiR-Mito 8 could differentiate cancer cells from normal cells without involving ligand conjugation. For fluorescent tumor imaging, human liver cancer Hep3B cells and the human hepatocyte line L02 were incubated with 1.0 μM SiR-Mito 8 for 1 hour, washed three times with cell growth media, and imaged using a LEICA DMi8 fluorescence microscope.
Specifically, Hep3B human liver cancer cells were cultured in Dulbecco's modified eagle media (DMEM, GIBCO) containing 10% fetal bovine serum (FBS, GIBCO) and 1% penicillin (GIBCO), and L02 or Chang human liver normal cells were cultured in Roswell Park Memorial Institute (RPMI, CAPRICORN) 1640 with L-Glutamine containing 10% FBS (GIBCO) and 1% Penicillin (HyClone) at 37° C. in a humidified incubator with 5% CO2. For the fluorescence microscope imaging, cells were harvested using TrypLE™ Express (GIBCO) and resuspended in fresh culture medium. […] Cells were washed with cell culture media for three times and observed with inverted fluorescence microscope (DMi8, LEICA).

“N-(10-(5-((cyclooctylmethyl) carbamoyl)-2-methylphenyl)-7-(dimethylamino)-5,5-dimethyldibenzo[b,e]silin-3(5H)-ylidene)-N-methylmethanaminium [SiR-Mito 8]”: in data set [1], the “Em (emission wavelength)” value came to 668 nm and the “Ex (excitation wavelength)” value turned out to be 651 nm. In addition, the “Φ (quantum yield)” value in data set [1] (absolute quantum yield) turned out to be 0.33. Besides, the “Fluorescence intensity in cancer cells versus normal cells” value in data set [2] is “higher fluorescence intensity than normal cells”.
